Measured values as given in patent publication US9833497B2, “Human originated EGF domain proteins and use of the same” (CHENGDU SOURCEBIO LIMITED-LIABILITY COMPANY, priority 2013, dated 2017).

Legend:
Type in all cases: cell-based
[1] = system: E. coli DH5α; test: Antibacterial activity: MIC and growth curve against E. coli DH5α in 96-well plate; settings: minimal inhibitory concentration against E. coli DH5α; 96-well plate, 5×10^5 CFU/mL, 37° C., judged after 8 h
How it was run: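 MIC taken as lowest protein level with no bacterial growth, tracked by A600 every 30 min during 37 °C, 175 rpm culture. Two-fold protein series 50-12.5 μg/mL final, triplicate wells, against 5×10^5 CFU/mL of LB-washed mid-log cells.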

[2] = system: E. coli BL21; test: MIC against Gram-negative bacteria: E. coli BL21; settings: for MIC (μg/mL) E. coli BL21 / MIC E. coli BL21: 5×10^5 CFU/mL
How it was run: (§1)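 The recombinant human-originated EGF domain proteins were serially diluted two-fold against bacteria at 5×10^5 CFU/mL in LB medium. After shaken incubation at 37° C, the lowest concentration with no bacterial growth was recorded as the MIC.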

[3] = system: Pseudomonas aeruginosa; test: MIC against Gram-negative bacteria: Pseudomonas aeruginosa; settings: for MIC (μg/mL) P. aeruginosa / MIC P. aeruginosa: 5×10^5 CFU/mL
How it was run: as §1

[4] = system: Klebsiella pneumonia; test: MIC against Gram-negative bacteria: Klebsiella pneumonia; settings: for MIC (μg/mL) K. pneumonia / MIC K. pneumonia: 5×10^5 CFU/mL
How it was run: as §1

[5] = system: Enterobacter cloacae; test: MIC against Gram-negative bacteria: Enterobacter cloacae; settings: for MIC (μg/mL) E. cloacae / MIC E. cloacae: 5×10^5 CFU/mL
How it was run: as §1

[6] = system: Aeromonas hydrophila; test: MIC against Gram-negative bacteria: Aeromonas hydrophila; settings: for MIC (μg/mL) A. hydrophila / MIC A. hydrophila: 5×10^5 CFU/mL
How it was run: as §1

[7] = system: Citrobacter diversus; test: MIC against Gram-negative bacteria: Citrobacter diversus; settings: for MIC (μg/mL) C. diversus / MIC C. diversus: 5×10^5 CFU/mL
How it was run: as §1

[8] = system: Moraxella catarrhalis; test: MIC against Gram-negative bacteria: Moraxella catarrhalis; settings: for MIC (μg/mL) M. catarrhalis / MIC M. catarrhalis: 5×10^5 CFU/mL
How it was run: as §1

[9] = system: Proteus mirabilis; test: MIC against Gram-negative bacteria: Proteus mirabilis; settings: for MIC (μg/mL) P. mirabilis / MIC P. mirabilis: 5×10^5 CFU/mL
How it was run: as §1

[10] = system: Proteus vulgaris; test: MIC against Gram-negative bacteria: Proteus vulgaris; settings: for MIC (μg/mL) P. vulgaris / MIC P. vulgaris: 5×10^5 CFU/mL
How it was run: as §1

[11] = system: Serratia marcescens; test: MIC against Gram-negative bacteria: Serratia marcescens; settings: for MIC (μg/mL) S. marcescens / MIC S. marcescens: 5×10^5 CFU/mL
How it was run: as §1

[12] = E. coli BL21, 96-well plate, 37° C., 10 h
[13] = Pseudomonas aeruginosa, 96-well plate, 37° C., 10 h
[14] = Klebsiella pneumonia, 96-well plate, 37° C., 10 h
[15] = Enterobacter cloacae, 96-well plate, 37° C., 10 h
[16] = Aeromonas hydrophila, 96-well plate, 37° C., 10 h
[17] = Citrobacter diversus, 96-well plate, 37° C., 10 h
[18] = Moraxella catarrhalis, 96-well plate, 37° C., 10 h
[19] = Proteus mirabilis, 96-well plate, 37° C., 10 h
[20] = Proteus vulgaris, 96-well plate, 37° C., 10 h
[21] = Serratia marcescens, 96-well plate, 37° C., 10 h
[22] = E. coli BL21, 10 h cultivation at 37° C.
[23] = P. aeruginosa, 10 h cultivation at 37° C.
[24] = K. pneumonia, 10 h cultivation at 37° C.
[25] = E. cloacae, 10 h cultivation at 37° C.
[26] = A. hydrophila, 10 h cultivation at 37° C.
[27] = C. diversus, 10 h cultivation at 37° C.
[28] = M. catarrhalis, 10 h cultivation at 37° C.
[29] = P. mirabilis, 10 h cultivation at 37° C.
[30] = P. vulgaris, 10 h cultivation at 37° C.
[31] = S. marcescens, 10 h cultivation at 37° C.

“PRT120 (CRPCQNGGLATVEGTHCLCHCKPYTFGAACE; listed as Homo sapiens)” was tested, and the MIC [1] was 12.5 µg/mL, the “MIC (μg/mL) E. coli BL21” value [2, 12] was 12.5 µg/mL and the “MIC (μg/mL) P. aeruginosa” value [3, 13] was 12.5 µg/mL. For the same substance, the “MIC (μg/mL) K. pneumonia” value [4, 14] was 12.5 µg/mL, the “MIC (μg/mL) E. cloacae” value [5, 15] was 12.5 µg/mL and the “MIC (μg/mL) A. hydrophila” value [6, 16] was 12.5 µg/mL. The “MIC (μg/mL) C. diversus” value [7, 17] was 12.5 µg/mL, the “MIC (μg/mL) M. catarrhalis” value [8, 18] was 100 µg/mL and the “MIC (μg/mL) P. mirabilis” value [9, 19] was 12.5 µg/mL. For the same substance, the “MIC (μg/mL) P. vulgaris” value [10, 20] was 25 µg/mL and the “MIC (μg/mL) S. marcescens” value [11, 21] was 12.5 µg/mL.

“PRT144 (DKKVCSSNPCQNGGTCLNLHDSFFCICPPQWKGPLCS; listed as Homo sapiens)” was tested, and the MIC [1] was 25 µg/mL, the “MIC (μg/mL) E. coli BL21” value [2, 22] was 50 µg/mL and the “MIC (μg/mL) P. aeruginosa” value [3, 23] was 12.5 µg/mL. For the same substance, the “MIC (μg/mL) K. pneumonia” value [4, 24] was 50 µg/mL, the “MIC (μg/mL) E. cloacae” value [5, 25] was 12.5 µg/mL and the “MIC (μg/mL) A. hydrophila” value [6, 26] was 50 µg/mL. The “MIC (μg/mL) C. diversus” value [7, 27] was 25 µg/mL, the “MIC (μg/mL) M. catarrhalis” value [8, 28] was 12.5 µg/mL and the “MIC (μg/mL) P. mirabilis” value [9, 29] was 25 µg/mL. For the same substance, the “MIC (μg/mL) P. vulgaris” value [10, 30] was 50 µg/mL and the “MIC (μg/mL) S. marcescens” value [11, 31] was 12.5 µg/mL.

“PRT750 (DIDECQVAPGEAPTCDHHCHNHLGGFYCSCRAGYVLHRNKRTCS; listed as Homo sapiens)” was tested, and the MIC [1] was 25 µg/mL, the “MIC (μg/mL) E. coli BL21” value [2, 22] was 12.5 µg/mL and the “MIC (μg/mL) P. aeruginosa” value [3, 23] was 50 µg/mL. For the same substance, the “MIC (μg/mL) K. pneumonia” value [4, 24] was 25 µg/mL, the “MIC (μg/mL) E. cloacae” value [5, 25] was 12.5 µg/mL and the “MIC (μg/mL) A. hydrophila” value [6, 26] was 25 µg/mL. For the same substance, the “MIC (μg/mL) C. diversus” value [7, 27] was 50 µg/mL, the “MIC (μg/mL) M. catarrhalis” value [8, 28] was 12.5 µg/mL and the “MIC (μg/mL) P. mirabilis” value [9, 29] was 50 µg/mL. The “MIC (μg/mL) P. vulgaris” value [10, 30] was 12.5 µg/mL and the “MIC (μg/mL) S. marcescens” value [11, 31] was 50 µg/mL.

For “PRT895 (NIDECAGNPCHNGGTCEDGINGFTCRCPEGYHDPTCL; listed as Homo sapiens)”, the MIC [1] was 50 µg/mL, the MIC [2, 22] was 25 µg/mL and the MIC [3, 23] was 12.5 µg/mL. For the same substance, the MIC [4, 24] was 50 µg/mL, the MIC [5, 25] was 12.5 µg/mL and the MIC [6, 26] was 50 µg/mL. The MIC [7, 27] was 12.5 µg/mL, the MIC [8, 28] was 50 µg/mL and the MIC [9, 29] was 12.5 µg/mL. For the same substance, the MIC [10, 30] was 25 µg/mL and the MIC [11, 31] was 25 µg/mL.

“PRT600 (CDCNPLGSLPFLTCDVDTGQCLCLSYVTGAHCEECTVGYWGLGNHLHGCSP; listed as Homo sapiens)” was tested, and the MIC [1] was 25 µg/mL, the “MIC E. coli BL21” value ([2]; 96-well plate, 37° C., 10 h) was 12.5 µg/mL and the “MIC P. aeruginosa” value ([3]; 96-well plate, 37° C., 10 h) was 25 µg/mL. The “MIC K. pneumonia” value ([4]; 96-well plate, 37° C., 10 h) was 50 µg/mL, the “MIC E. cloacae” value ([5]; 96-well plate, 37° C., 10 h) was 25 µg/mL and the “MIC A. hydrophila” value ([6]; 96-well plate, 37° C., 10 h) was 12.5 µg/mL. The “MIC C. diversus” value ([7]; 96-well plate, 37° C., 10 h) was 25 µg/mL, the “MIC M. catarrhalis” value ([8]; 96-well plate, 37° C., 10 h) was 50 µg/mL and the “MIC P. mirabilis” value ([9]; 96-well plate, 37° C., 10 h) was 25 µg/mL. For the same substance, the “MIC P. vulgaris” value ([10]; 96-well plate, 37° C., 10 h) was 12.5 µg/mL and the “MIC S. marcescens” value ([11]; 96-well plate, 37° C., 10 h) was 25 µg/mL.

“PRT39 (PVRDCSRNNGGCTRNFKCVSDRQVDSSGCVCPEELKPMKDGSGCY; listed as Homo sapiens)” was tested, and the MIC [1] was 50 µg/mL, the “MIC (μg/mL) E. coli BL21” value [2, 12] was 25 µg/mL and the “MIC (μg/mL) P. aeruginosa” value [3, 13] was 50 µg/mL. The “MIC (μg/mL) K. pneumonia” value [4, 14] was 50 µg/mL, the “MIC (μg/mL) E. cloacae” value [5, 15] was 25 µg/mL and the “MIC (μg/mL) A. hydrophila” value [6, 16] was 50 µg/mL. The “MIC (μg/mL) C. diversus” value [7, 17] was 50 µg/mL, the “MIC (μg/mL) M. catarrhalis” value [8, 18] was 12.5 µg/mL and the “MIC (μg/mL) P. mirabilis” value [9, 19] was 25 µg/mL. For the same substance, the “MIC (μg/mL) P. vulgaris” value [10, 20] was 12.5 µg/mL and the “MIC (μg/mL) S. marcescens” value [11, 21] was 12.5 µg/mL.

In the case of “PRT649 (DVDECLEPNVCANGDCSNLEGSYMCSCHKGYTRTPDHKHCR; listed as Homo sapiens)”, the MIC [1] is reported as 50 µg/mL, the “MIC E. coli BL21” value ([2]; 96-well plate, 37° C., 10 h) is reported as 12.5 µg/mL and the “MIC P. aeruginosa” value ([3]; 96-well plate, 37° C., 10 h) is reported as 50 µg/mL. For the same substance, the “MIC K. pneumonia” value ([4]; 96-well plate, 37° C., 10 h) was 12.5 µg/mL, the “MIC E. cloacae” value ([5]; 96-well plate, 37° C., 10 h) was 50 µg/mL and the “MIC A. hydrophila” value ([6]; 96-well plate, 37° C., 10 h) was 12.5 µg/mL. The “MIC C. diversus” value ([7]; 96-well plate, 37° C., 10 h) was 50 µg/mL, the “MIC M. catarrhalis” value ([8]; 96-well plate, 37° C., 10 h) was 12.5 µg/mL and the “MIC P. mirabilis” value ([9]; 96-well plate, 37° C., 10 h) was 25 µg/mL. For the same substance, the “MIC P. vulgaris” value ([10]; 96-well plate, 37° C., 10 h) was 50 µg/mL and the “MIC S. marcescens” value ([11]; 96-well plate, 37° C., 10 h) was 25 µg/mL.
